Ends that are not written are not given here. * marks the point of attachment. FITC = O=C1OC2(c3ccc(O)cc3Oc3cc(O)ccc32)c2ccc(NC(=S)*)cc21

One experiment deals with mitochondrial membranes. The conditions noted are these: concentration of 10 μM; cited from earlier work.
For experiment [1], the target named is T1, collagen IV fragment of clone #3 (SEQ ID NO: 2) (Mus musculus, UniProt P08122).
T1 construct: made in house; host or cells: T7 phage (modified T7Select1-2b) amplified in BLT 5615 bacteria; cDNA from mouse 4T1 cells
T1 sequence (P08122 with tags, fused parts or gaps): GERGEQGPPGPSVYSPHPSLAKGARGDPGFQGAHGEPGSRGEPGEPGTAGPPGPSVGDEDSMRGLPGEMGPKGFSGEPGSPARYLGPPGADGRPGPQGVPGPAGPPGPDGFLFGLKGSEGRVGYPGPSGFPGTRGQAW
Briefly: Binding of phage displaying clone #3 collagen IV fragment to immobilized CREKA peptide and its competition. The arrangement: effect of fibronectin on phage binding (clone #3 fragment / immobilized CREKA): dose or concentration left out as unconfirmed. As for the experimental part: Expression cloning was performed essentially as described in Essler and Ruoslahti, Proc. Natl. Acad. Sci., USA 99:2252-2257 (2002). CREKA (SEQ ID NO: 1) peptide was synthesized on a Symphony synthesizer (Rainin Instruments; Emeryville, Calif.) at The Burnham Institute peptide facility, and purified by high performance liquid chromatography. […] Biotin-labeled peptide (2 mg/ml) was immobilized on a streptavidin-coated 96 well Reacti-Bind® polystyrene strip plate (Pierce; Rockford, Ill.) by coating overnight at room temperature with 100 μl of 2 mg/ml biotin-CREKA (SEQ ID NO: 1) in PBS. The wells were subsequently treated three times with 200 μl SuperBlock® blocking buffer (Pierce).
Binding assays were performed as follows. […]
For competitions with free CREKA (SEQ ID NO: 1) peptide, phage displaying the clone #3 collagen IV fragment (SEQ ID NO: 2; 1×10^7 pfu) were applied to CREKA (SEQ ID NO: 1)-coated surfaces in 96-well ELISA plates prepared as described above, and incubated for one […] in the presence of 0.01 mg, 0.05 mg, or 0.1 mg soluble CREKA (SEQ ID NO: 1) peptide in 100 μl PBS. […] After 20 washes with 100 μl PBS, phage particles were recovered by infecting BL21 bacteria, and the number of attached phage determined. Phage output was determined as a percentage of phage recovered from wells not treated with soluble peptide.

Experiment [2] relates to vasculature of MDA-MB-435 human breast cancer cell xenografts. The experiment can be described thus: In vivo homing of phage to MDA-MB-435 xenografts in nude mice (phage recovery, pfu). The arrangement: species or system mouse. The settings on record: co-injection. The protocol:
Phage preparations (1×10^9 plaque forming units (pfu)) of CREKA (SEQ ID NO: 1)-displaying phage were injected into tumor-bearing mice and subsequently recovered from breast tumors and a variety of normal tissues. […] The CREKA (SEQ ID NO: 1) phage also homed to the vasculature of MDA-MB-435 human breast cancer cell xenografts grown in the mammary fat pad of nude mice with a 20-fold specificity over non-recombinant phage as shown in FIG. 1B.
In vivo phage display screens were performed with 65 to 75 day old transgenic MMTV PyMT mice obtained from Dr. William Muller. MDA-MB-435 tumors were generated as described in Laakkonen et al., Nat. Med. 7:751-755 (2002). Briefly, 10^6 MDA-MB-435 cells in 100 μl phosphate buffered saline (PBS) were injected into the mammary fat pad of nude mice. Tumors were grown for five weeks before the animals were used in vivo studies. In vivo phage screening was performed as described in Porkka et al., Proc. Natl. Acad. Sci., USA 99:7444-7449 (2002), with a few modifications. Briefly, mice were anesthetized with avertin and then injected intravenously with 10^9 pfu of the CX7C library. Mice were perfused through the heart with 10 ml of PBS seven minutes after the injection. […] Cell-adherent phage particles were recovered by infecting BL21 bacteria (Novagen), and the number of phage quantified by plaque assay.

For a further experiment, the system named is MMTV PyMT tumors. Briefly: Tissue localization of fluorescein- and rhodamine-labeled peptide after intravenous injection. The settings on record: for detection of labeled peptide in MMTV PyMT tumors / detection of labeled peptide in normal tissues: 15 minutes after intravenous injection; for detection of labeled peptide in normal tissues: brain or liver. It counts as in vivo, mouse. The protocol: Similarly, fluorescein (FITC) and rhodamine labeled CREKA (SEQ ID NO: 1) peptides also were detected in MMTV PyMT tumors 15 minutes after intravenous injection but were not observed in normal tissues such as the brain or liver (compare FIG. 3A with FIGS. 3B and 3C). […] As expected, control organs such as the heart, injected with rhodamine-labeled CREKA (SEQ ID NO: 1) and FITC-tomato-lectin, which stains blood vessels, were negative for CREKA (SEQ ID NO: 1) peptide staining (see FIG. 3F).
Peptide synthesis and labeling of peptides with fluorescein and rhodamine was carried out as described in Wender et al., Proc. Natl. Acad. Sci., USA 97:13003-13008 (2000), and Oku et al., supra, 2002, and detected essentially as follows. A 1 mg/ml solution of fluorescein-labeled CREKA (SEQ ID NO: 1) peptide in PBS was injected into the tail vein of MMTV PyMT mice. After 15 minutes or two hours of circulation, mice were perfused through the heart with 10 ml PBS, and the indicated organs harvested. Tissues were dissected, fixed with 3.7% paraformaldehyde for two hours, washed with PBS, and soaked in glycine (0.01%, pH 7.4) for 12 hours. Specimens were then treated with a sucrose gradient (12%, 15%, 18%), embedded in Tissue-Tek© (Miles Inc.; Elkhardt, Ind.) and frozen. Subsequently, 5 μm sections were prepared for fluorescence microscopy, and 50 μm sections were prepared for confocal microscopy. To detect blood vessels, 100 μl of 1 mg/ml solution of fluorescein-labeled tomato lectin (Vector Labs; Burlingame, Calif.) was injected into mice in PBS.

The target in experiment [3] is T2, collagen IV in MMTV-PyMT tumors (Mus musculus, UniProt P02463+P08122).
T2 construct: from tissue; host or cells: breast tumors of MMTV PyMT mice
Briefly: Co-localization of injected FITC peptide with collagen IV immunostaining in tumors. The settings on record: 100 μg injected into tail vein, 15 minutes; connective tissue surrounding tumor masses. It counts as in vivo. As for the experimental part:
Localization of collagen IV was compared to the localization of CREKA (SEQ ID NO: 1) peptide in breast tumors.
Immunostaining was performed after injection of 100 μg FITC-CREKA (SEQ ID NO: 1) into the tail vein of MMTV PyMT mice. After 15 minutes, tumors were dissected, fixed, stained for collagen IV and counter-stained with DAPI essentially as follows. Collagen IV was detected by immunofluorescence as described in Engvall et al., supra, 1982, with the following modifications. Briefly, mouse tissues were fixed with 3.7% paraformaldehyde for two hours, washed with PBS, and incubated in glycine (0.01%, pH 7.4) for 12 hours to quench autofluorescence of the samples. Specimens were then treated with increasing concentrations of sucrose (12%, 15%, 18%), embedded in Tissue-Tek© (Miles Inc.), frozen, and cut into 5 μm sections. After an overnight incubation with rabbit antiserum to collagen IV (diluted 1:40 in PBS) at 4° C. (Engvall et al., supra, 1982), the sections were washed with PBS and incubated with rhodamine-labeled goat anti-rabbit antibody (DAKO) at a dilution of 1:30 for 30 minutes. After washing, the sections were mounted in 90% glycerol.

Another experiment relates to tumor. Briefly: In vivo tumor homing of CREKA phage with co-injection of gelatin.
[4] abbreviates: after two hours, localizing outside the blood vessels.

T2 sequence (P02463 173-1669): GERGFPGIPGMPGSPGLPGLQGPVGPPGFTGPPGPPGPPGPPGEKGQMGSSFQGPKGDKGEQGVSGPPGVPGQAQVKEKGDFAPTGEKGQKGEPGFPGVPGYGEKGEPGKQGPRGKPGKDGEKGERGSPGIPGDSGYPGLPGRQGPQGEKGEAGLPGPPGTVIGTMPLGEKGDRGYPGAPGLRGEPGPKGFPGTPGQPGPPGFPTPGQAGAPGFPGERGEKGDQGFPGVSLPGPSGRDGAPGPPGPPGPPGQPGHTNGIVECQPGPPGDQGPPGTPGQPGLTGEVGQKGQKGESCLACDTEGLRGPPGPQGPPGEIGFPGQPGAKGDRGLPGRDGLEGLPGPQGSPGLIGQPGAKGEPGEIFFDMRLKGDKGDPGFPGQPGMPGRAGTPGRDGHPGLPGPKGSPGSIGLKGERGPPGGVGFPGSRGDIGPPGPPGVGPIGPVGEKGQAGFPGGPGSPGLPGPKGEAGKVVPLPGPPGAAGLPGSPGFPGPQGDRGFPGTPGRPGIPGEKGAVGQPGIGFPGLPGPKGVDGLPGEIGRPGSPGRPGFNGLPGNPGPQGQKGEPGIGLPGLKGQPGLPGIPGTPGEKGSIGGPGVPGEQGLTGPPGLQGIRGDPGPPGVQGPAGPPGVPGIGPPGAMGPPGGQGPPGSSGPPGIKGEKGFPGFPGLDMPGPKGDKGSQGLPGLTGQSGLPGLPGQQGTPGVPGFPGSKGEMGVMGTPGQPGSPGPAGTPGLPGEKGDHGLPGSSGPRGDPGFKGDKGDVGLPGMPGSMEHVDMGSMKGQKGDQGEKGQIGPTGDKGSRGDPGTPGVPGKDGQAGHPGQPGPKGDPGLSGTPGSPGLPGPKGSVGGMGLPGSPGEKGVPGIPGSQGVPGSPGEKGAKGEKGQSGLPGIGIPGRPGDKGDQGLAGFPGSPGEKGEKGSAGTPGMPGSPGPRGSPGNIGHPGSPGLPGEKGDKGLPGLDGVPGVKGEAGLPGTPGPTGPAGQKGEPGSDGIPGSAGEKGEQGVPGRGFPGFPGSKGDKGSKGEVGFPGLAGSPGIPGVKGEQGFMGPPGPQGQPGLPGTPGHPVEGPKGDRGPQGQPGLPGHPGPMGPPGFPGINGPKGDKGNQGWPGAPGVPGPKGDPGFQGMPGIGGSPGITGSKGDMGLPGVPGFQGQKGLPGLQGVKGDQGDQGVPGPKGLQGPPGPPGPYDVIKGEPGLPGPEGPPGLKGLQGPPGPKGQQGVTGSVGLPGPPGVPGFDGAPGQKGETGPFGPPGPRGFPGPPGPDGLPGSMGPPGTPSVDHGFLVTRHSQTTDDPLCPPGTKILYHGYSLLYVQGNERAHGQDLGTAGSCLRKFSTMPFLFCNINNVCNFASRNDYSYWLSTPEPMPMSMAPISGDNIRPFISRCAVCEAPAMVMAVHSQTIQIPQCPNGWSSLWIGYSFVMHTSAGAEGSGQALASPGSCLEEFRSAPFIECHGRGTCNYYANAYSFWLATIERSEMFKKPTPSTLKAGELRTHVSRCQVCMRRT
T2 sequence (P08122 184-1707): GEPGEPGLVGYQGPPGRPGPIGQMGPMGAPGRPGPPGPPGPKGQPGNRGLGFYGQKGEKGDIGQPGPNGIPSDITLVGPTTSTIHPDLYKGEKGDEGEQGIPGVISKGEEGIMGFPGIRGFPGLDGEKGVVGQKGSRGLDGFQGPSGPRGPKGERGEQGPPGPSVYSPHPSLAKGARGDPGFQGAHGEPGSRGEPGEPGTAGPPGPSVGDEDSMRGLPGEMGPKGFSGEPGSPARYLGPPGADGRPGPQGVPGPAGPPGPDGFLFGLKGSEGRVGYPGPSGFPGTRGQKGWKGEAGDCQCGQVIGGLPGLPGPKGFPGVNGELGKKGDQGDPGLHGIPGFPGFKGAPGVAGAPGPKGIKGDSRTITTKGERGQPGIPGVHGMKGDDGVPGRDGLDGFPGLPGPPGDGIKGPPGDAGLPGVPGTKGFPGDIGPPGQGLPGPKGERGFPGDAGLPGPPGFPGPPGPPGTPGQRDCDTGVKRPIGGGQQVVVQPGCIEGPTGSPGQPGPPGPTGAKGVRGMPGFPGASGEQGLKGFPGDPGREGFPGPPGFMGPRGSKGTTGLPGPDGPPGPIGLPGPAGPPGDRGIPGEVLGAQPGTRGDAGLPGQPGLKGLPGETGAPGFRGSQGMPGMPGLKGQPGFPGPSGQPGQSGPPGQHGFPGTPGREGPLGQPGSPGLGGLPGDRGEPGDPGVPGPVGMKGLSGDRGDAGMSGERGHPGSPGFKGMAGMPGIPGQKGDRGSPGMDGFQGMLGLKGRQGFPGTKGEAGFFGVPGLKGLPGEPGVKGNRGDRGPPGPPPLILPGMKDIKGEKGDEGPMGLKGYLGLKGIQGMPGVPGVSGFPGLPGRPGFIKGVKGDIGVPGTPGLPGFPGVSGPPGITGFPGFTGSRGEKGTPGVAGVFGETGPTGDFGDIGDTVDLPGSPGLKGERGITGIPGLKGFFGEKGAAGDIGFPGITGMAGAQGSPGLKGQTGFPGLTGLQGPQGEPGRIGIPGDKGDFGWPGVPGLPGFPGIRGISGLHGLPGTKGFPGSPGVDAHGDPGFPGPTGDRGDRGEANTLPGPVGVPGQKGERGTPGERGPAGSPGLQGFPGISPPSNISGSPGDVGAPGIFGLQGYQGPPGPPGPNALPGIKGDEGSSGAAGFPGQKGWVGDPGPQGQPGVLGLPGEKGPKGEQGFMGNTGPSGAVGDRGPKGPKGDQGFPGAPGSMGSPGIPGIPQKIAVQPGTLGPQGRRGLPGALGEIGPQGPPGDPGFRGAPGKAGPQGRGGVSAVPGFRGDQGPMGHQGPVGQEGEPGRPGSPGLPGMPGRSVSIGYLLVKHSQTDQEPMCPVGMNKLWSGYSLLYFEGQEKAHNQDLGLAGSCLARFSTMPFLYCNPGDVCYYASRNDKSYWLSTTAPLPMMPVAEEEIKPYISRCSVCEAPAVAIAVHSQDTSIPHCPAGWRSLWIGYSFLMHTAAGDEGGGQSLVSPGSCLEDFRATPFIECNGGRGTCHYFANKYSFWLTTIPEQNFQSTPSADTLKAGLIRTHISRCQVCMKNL

Consider D(KLAKLAK)2, for which the mitochondrial swelling result in the experiment on mitochondrial membranes is listed as “marked mitochondrial swelling”.

For the substance CREKA [CREKA peptide], the “inhibition of clone #3 collagen IV fragment phage binding to immobilized CREKA” value in experiment [1] (0.01 mg, 0.05 mg or 0.1 mg soluble peptide in 100 μl PBS, FIG. 5A) is on record as “inhibited”. Further, the “effect of co-injected free peptide on homing of phage displaying the control peptide” value in experiment [2] is on record as “did not inhibit”. The “effect of co-injected free peptide on CREKA-displaying phage recovery from breast cancer tissue” value in experiment [2] (excess of free peptide, FIG. 1B) is “inhibited”.

For the substance “FITC-CREKA: fluorescein (FITC) labeled CREKA (SEQ ID NO: 1) peptide ({FITC}-CREKA)”, in the experiment on MMTV PyMT tumors, the “detection of labeled peptide in MMTV PyMT tumors” value was “detected” and the “detection of labeled peptide in normal tissues” value was “not observed”. In addition, the “distribution of labeled peptide within tumor” value (shortened to “distribution”) with MMTV PyMT tumors (15 minutes after the injection) was “primarily in the tumor periphery”. Also, in the experiment on MMTV PyMT tumors (setting [4]), the “distribution” value is recorded as “detected in the entire tumor”. Further, the “co-localization with collagen IV in tumors” value in experiment [3] was “partially co-localized”.

For “rhodamine-labeled CREKA: rhodamine labeled CREKA (SEQ ID NO: 1) peptide (also: rhodamine label, site not given here)”, in the experiment with MMTV PyMT tumors, the “detection of labeled peptide in MMTV PyMT tumors” value is on record as “detected” and the “detection of labeled peptide in normal tissues” value is listed as “not observed”. In addition, the “distribution” value with MMTV PyMT tumors (15 minutes after the injection) is listed as “primarily in the tumor periphery”. For the same substance, the “distribution” value in the experiment on MMTV PyMT tumors (setting [4]) is “detected in the entire tumor”. Further, the “CREKA peptide staining in heart” value in the experiment with MMTV PyMT tumors (heart, co-injected with FITC-tomato-lectin, FIG. 3F) was “negative”.

In the case of gelatin, the “effect of co-injection on in vivo tumor homing of CREKA-expressing phage” value with tumor was “completely blocked”.

Take Fibronectin [reference compound]: the “effect of fibronectin on phage binding (clone #3 fragment / immobilized CREKA)” value in experiment [1] (fibronectin, FIG. 5B) is on record as “did not significantly reduce”.

The record behind these values is patent publication US7488792B2, “Collagen-binding molecules that selectively home to tumor vasculature and methods of using same” (Burnham Institute for Medical Research, priority 2002, dated 2009).
